Where two headings read alike, the source gives them in different places.
Tests used:
[1] = target: T1, HCV NS5B polymerase 1a-H77 (Hepatitis C virus genotype 1a, UniProt P27958); assay: biochemical; set-up: species or system HCV genotype 1a; details: enzyme, strain 1a H77; read-out: HCV Polymerase Strain 1a H77 IC50
T1 construct: six-histidine tag; made in house; host or cells: E. coli
Summary of the method: (§1)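 Incorporation of [3H]UTP (0.284 μM), alongside 20 μM each CTP and ATP, into RNA copied from a 5 nM 2.1 kb genotype 1b negative-strand template was measured after 3 h at 30° C using purified His-tagged NS5B truncated at residue 570. Product was spermine-precipitated, filtered and scintillation-counted; nonlinear regression gave IC50.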

[2] = target: T2, HCV NS5B polymerase 1a-H77-C316Y (Hepatitis C virus genotype 1a, UniProt P27958, C2736Y); assay: biochemical; set-up: species or system HCV genotype 1a
T2 construct: six-histidine tag; made in house; host or cells: E. coli
Summary of the method: as §1

[3] = test system: HCV NS5B polymerase 1a-H77-C316Y; assay: biochemical; set-up: species or system HCV genotype 1a; details: ratio of enzyme IC50s, 1a H77-C316Y / 1a H77
Summary of the method: as §1

[4] = target: T3, HCV NS5B polymerase 1b BK strain (Hepatitis C virus genotype 1b, UniProt P26663); assay: HCV NS5B polymerase enzymatic inhibition assay, strain 1b BK; format: biochemical; details: enzyme, strain 1b BK; read-out: HCV Polymerase Strain 1b BK IC50
T3 construct: six-histidine tag; made in house; host or cells: E. coli
Summary of the method: as §1

[5] = test system: HCV 1a-H77 subgenomic replicon; assay: microbe, parasite or virus in culture; format: cell-based, HCV genotype 1a; details: Hepatitis C virus, stable replicon
[6] = test system: HCV 1b-BB7 subgenomic replicon; assay: microbe, parasite or virus in culture; format: cell-based, HCV genotype 1b; details: Hepatitis C virus, stable replicon
[7] = 5% FBS, absence of human plasma, read-out: Stable Replicon 1a H77 5% FBS EC50
[8] = strain 1a H77, 5% FBS + 40% human plasma, read-out: 1a H77 5% FBS + 40% Human Plasma EC50
[9] = strain 1a H77, 5% FBS, no human plasma, read-out: 1a H77 5% FBS EC50
[10] = strain 1a H77, 5% FBS, read-out: 1a H77 5% FBS EC50
[11] = strain 1b BB7, 5% FBS + 40% human plasma, read-out: 1b BB7 5% FBS + 40% Human Plasma EC50
[12] = strain 1b BB7, 5% FBS, no human plasma, read-out: 1b BB7 5% FBS EC50
[13] = strain 1b BB7, 5% FBS, read-out: 1b BB7 5% FBS EC50

T2 sequence (P27958 2421-2990 C2736Y): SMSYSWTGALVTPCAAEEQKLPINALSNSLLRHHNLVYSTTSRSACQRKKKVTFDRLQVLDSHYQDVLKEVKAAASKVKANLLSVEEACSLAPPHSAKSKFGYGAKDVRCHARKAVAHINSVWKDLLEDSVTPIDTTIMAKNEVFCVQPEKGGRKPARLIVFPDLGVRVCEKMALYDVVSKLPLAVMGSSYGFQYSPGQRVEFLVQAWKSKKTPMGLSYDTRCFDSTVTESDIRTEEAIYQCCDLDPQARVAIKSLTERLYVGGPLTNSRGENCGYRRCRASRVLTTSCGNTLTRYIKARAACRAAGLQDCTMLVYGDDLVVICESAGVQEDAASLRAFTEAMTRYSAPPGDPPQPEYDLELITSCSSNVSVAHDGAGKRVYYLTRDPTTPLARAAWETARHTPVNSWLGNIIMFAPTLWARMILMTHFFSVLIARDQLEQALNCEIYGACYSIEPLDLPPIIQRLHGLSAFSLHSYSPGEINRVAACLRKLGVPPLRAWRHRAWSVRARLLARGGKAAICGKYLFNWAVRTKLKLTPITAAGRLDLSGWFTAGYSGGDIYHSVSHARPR
T1 sequence (P27958 2421-2990): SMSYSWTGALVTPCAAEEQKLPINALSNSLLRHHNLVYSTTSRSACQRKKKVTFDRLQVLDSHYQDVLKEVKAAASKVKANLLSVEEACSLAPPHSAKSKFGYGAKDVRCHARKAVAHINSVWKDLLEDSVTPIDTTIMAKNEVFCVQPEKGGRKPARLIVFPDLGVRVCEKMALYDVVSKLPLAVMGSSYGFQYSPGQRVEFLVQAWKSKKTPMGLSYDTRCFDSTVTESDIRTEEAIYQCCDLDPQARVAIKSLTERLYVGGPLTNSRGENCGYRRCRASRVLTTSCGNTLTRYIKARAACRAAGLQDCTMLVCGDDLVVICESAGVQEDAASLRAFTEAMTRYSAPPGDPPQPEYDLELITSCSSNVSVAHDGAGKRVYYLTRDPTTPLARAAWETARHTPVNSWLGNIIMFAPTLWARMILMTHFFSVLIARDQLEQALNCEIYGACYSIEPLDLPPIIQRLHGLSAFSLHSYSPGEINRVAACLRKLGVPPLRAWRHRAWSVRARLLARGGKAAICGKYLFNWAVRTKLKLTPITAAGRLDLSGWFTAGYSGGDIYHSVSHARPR
T3 sequence (P26663 2420-2989): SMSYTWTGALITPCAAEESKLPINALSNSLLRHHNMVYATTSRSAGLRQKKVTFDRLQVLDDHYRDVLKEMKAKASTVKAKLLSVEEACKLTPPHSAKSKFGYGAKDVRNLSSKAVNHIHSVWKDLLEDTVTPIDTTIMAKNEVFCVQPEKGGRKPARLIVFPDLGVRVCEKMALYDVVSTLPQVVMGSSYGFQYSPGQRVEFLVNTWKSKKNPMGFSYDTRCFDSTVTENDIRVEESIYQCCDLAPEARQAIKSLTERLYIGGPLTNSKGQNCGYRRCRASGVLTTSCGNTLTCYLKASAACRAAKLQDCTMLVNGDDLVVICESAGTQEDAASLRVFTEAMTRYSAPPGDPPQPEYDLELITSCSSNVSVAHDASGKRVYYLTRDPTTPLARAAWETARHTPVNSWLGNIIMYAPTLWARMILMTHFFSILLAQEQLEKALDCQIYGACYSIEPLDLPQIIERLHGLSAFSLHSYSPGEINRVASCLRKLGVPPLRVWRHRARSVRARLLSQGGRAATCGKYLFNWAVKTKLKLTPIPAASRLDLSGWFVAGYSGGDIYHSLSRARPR

Row | Structure (SMILES) | IC50 [1] [nM] | IC50 [2] [nM] | C316Y/1a Fold Resistance [3] [fold] | IC50 [4] [nM] | EC50 [5, 7] [nM] | EC50 [5, 8] [nM] | EC50 [5, 9] [nM] | EC50 [5, 10] [nM] | EC50 [6, 11] [nM] | EC50 [6, 12] [nM] | EC50 [6, 13] [nM]
1 | CS(=O)(=O)N(CCCC(=O)O)c1cc2oc(-c3ccc(F)cc3)c(-c3ncc[nH]3)c2cc1C1CC1 [Example 89, 4-{[5-cyclopropyl-2-(4-fluorophenyl)-3-(1H-imidazol-2-yl)-1-benzofuran-6-yl](methylsulfonyl)amino}butanoic acid] | 5 | 77 | 15 | 65 | 269 | 2440 | 269 | 269 | 376 | 91.5 | 91.5
2 | CS(=O)(=O)N(CC(O)CO)c1cc2oc(-c3ccc(F)cc3)c(-c3ncc[nH]3)c2cc1C1CC1 (stereo not drawn) [Example 93, N-[5-cyclopropyl-2-(4-fluorophenyl)-3-(1H-imidazol-2-yl)-1-benzofuran-6-yl]-N-(2,3-dihydroxypropyl)methanesulfonamide] | 5 | 1600 | 320 | 117 | 83.2 | 915 | 83.2 | 83.2 | 880 | 63.4 | 63.4
3 | CC(C)(O)C(O)CN(c1cc2oc(-c3ccc(F)cc3)c(-c3ncc[nH]3)c2cc1C1CC1)S(C)(=O)=O (stereo not drawn) [Example 94, N-[5-cyclopropyl-2-(4-fluorophenyl)-3-(1H-imidazol-2-yl)-1-benzofuran-6-yl]-N-(2,3-dihydroxy-3-methylbutyl)methanesulfonamide] | 9.4 | 1000 | 107 | 28 | 60.2 | 599 | 60.2 | 60.2 | 360 | 76.3 | 76.3
4 | CC(O)CN(c1cc2oc(-c3ccc(F)cc3)c(-c3ncc[nH]3)c2cc1C1CC1)S(C)(=O)=O (stereo not drawn) [Example 98, N-[5-cyclopropyl-2-(4-fluorophenyl)-3-(1H-imidazol-2-yl)-1-benzofuran-6-yl]-N-(2-hydroxypropyl)methanesulfonamide] | 24.5 | 3200 | 131 | 240 | 158 | 1630 | 158 | 158 | 2060 | 136 | 136
5 | CS(=O)(=O)N(CCCC(=O)N1CCOCC1)c1cc2oc(-c3ccc(F)cc3)c(-c3ncc[nH]3)c2cc1C1CC1 [Example 103, N-[5-cyclopropyl-2-(4-fluorophenyl)-3-(1H-imidazol-2-yl)-1-benzofuran-6-yl]-N-[4-(morpholin-4-yl)-4-oxobutyl]methanesulfonamide] | 7.9 | 400 | 50 | 55 | 44.6 | 563 | 44.6 | 44.6 | 114 | 13.9 | 13.9
6 | CS(=O)(=O)N(CCCC(=O)N1CCCCC1)c1cc2oc(-c3ccc(F)cc3)c(-c3ncc[nH]3)c2cc1C1CC1 [Example 104, N-[5-cyclopropyl-2-(4-fluorophenyl)-3-(1H-imidazol-2-yl)-1-benzofuran-6-yl]-N-[4-oxo-4-(piperidin-1-yl)butyl]methanesulfonamide] | 6.9 | 180 | 26 | 52 | 31.9 | 502 | 31.9 | 31.9 | 268 | 13.3 | 13.3
7 | CS(=O)(=O)NC(=O)CCCN(c1cc2oc(-c3ccc(F)cc3)c(-c3ncc[nH]3)c2cc1C1CC1)S(C)(=O)=O [Example 105, 4-{[5-cyclopropyl-2-(4-fluorophenyl)-3-(1H-imidazol-2-yl)-1-benzofuran-6-yl](methylsulfonyl)amino}-N-(methylsulfonyl)butanamide] | 8 | 111 | 14 | 16 | 108 | 1060 | 108 | 108 | 519 | 68.6 | 68.6
8 | CC(C)(O)C(=O)CCN(c1cc2oc(-c3ccc(F)cc3)c(-c3ncc[nH]3)c2cc1C1CC1)S(C)(=O)=O [Example 106, N-[5-cyclopropyl-2-(4-fluorophenyl)-3-(1H-imidazol-2-yl)-1-benzofuran-6-yl]-N-(4-hydroxy-4-methyl-3-oxopentyl)methanesulfonamide] | 7.3 | 101 | 14 | 19 | 54.4 | 915 | 54.4 | 54.4 | 221 | 27.3 | 27.3
9 | CS(=O)(=O)N(CCC(O)CO)c1cc2oc(-c3ccc(F)cc3)c(-c3ncc[nH]3)c2cc1C1CC1 (stereo not drawn) [Example 110, N-[5-cyclopropyl-2-(4-fluorophenyl)-3-(1H-imidazol-2-yl)-1-benzofuran-6-yl]-N-(3,4-dihydroxybutyl)methanesulfonamide] | 6.5 | 125 | 19 | 12 | 14.3 | 206 | 14.3 | 14.3 | 315 | 16.7 | 16.7
10 | CS(=O)(=O)N(CCN)c1cc2oc(-c3ccc(F)cc3)c(-c3ncc[nH]3)c2cc1C1CC1 [Example 111, N-(2-aminoethyl)-N-[5-cyclopropyl-2-(4-fluorophenyl)-3-(1H-imidazol-2-yl)-1-benzofuran-6-yl]methanesulfonamide] | 9.9 | 2000 | 201 | 111 | 152 | 1000 | 152 | 152 | 92 | 40.4 | 40.4
11 | CS(=O)(=O)N(CCCN)c1cc2oc(-c3ccc(F)cc3)c(-c3ncc[nH]3)c2cc1C1CC1 [Example 112, N-(3-aminopropyl)-N-[5-cyclopropyl-2-(4-fluorophenyl)-3-(1H-imidazol-2-yl)-1-benzofuran-6-yl]methanesulfonamide] | 10.6 | 868 | 82 | 51 | 262 | 1030 | 262 | 262 | 101 | 34 | 34
12 | COc1ccc(CN(c2cc3oc(-c4ccc(F)cc4)c(-c4nc(Cl)c[nH]4)c3cc2C2CC2)S(C)(=O)=O)cc1 [Example 159, N-[3-(4-chloro-1H-imidazol-2-yl)-5-cyclopropyl-2-(4-fluorophenyl)-1-benzofuran-6-yl]-N-(4-methoxybenzyl)methanesulfonamide] | 45 | 8000 | 178 | 438 | 990 | 10000 | 990 | 990 | 10000 | 544 | 544
